# Square brackets hold non-standard residues; d marks the D form. Peptide text beside a SMILES is read from it. ξ: configuration not given here. 1Nal = N[C@@H](Cc1cccc2ccccc12)C(=O)O; ξ1Nal = NC(Cc1cccc2ccccc12)C(=O)O; 3Amb = NCc1cccc(C(=O)O)c1
# Organism: Rattus norvegicus
# Experiment: Compound was evaluated for its potency using rat pituitary cell assay
# Assay type: functional
# Conditions: Pituitary gland cell, read-out: ED50 (the source's name)
row,Structure (SMILES),EC50 [nM]
1,CC(C)(N)CC(=O)N[C@@H]1CCc2ccccc2N(Cc2ccc(-c3ccccc3-c3nn[nH]n3)cc2)C1=O,125
2,NC1(C(=O)N[C@@H]2CCc3c(ccc4ccccc34)N(Cc3ccc(-c4ccccc4-c4nn[nH]n4)cc3)C2=O)CC1,175
3,CC(C)(N)CC(=O)N[C@@H]1CCc2c(ccc3ccccc23)N(Cc2ccccc2)C1=O,8500
4,Cc1nnc(-c2cscc2-c2ccc(CN3C(=O)[C@H](NC(=O)CC(C)(C)N)CCc4ccccc43)cc2)o1,62
5,CC(C)(N)C(=O)N[C@@H]1CCc2ccccc2N(Cc2ccc(-c3ccccc3-c3nn[nH]n3)cc2)C1=O,30
6,CC(C)(N)CC(=O)N[C@@H]1CCc2ccccc2N(Cc2ccccc2)C1=O,1000
7,CC(C)(N)CC(=O)N[C@@H]1CCc2c(ccc3ccccc23)N(Cc2ccc(-c3ccccc3-c3nn[nH]n3)cc2)C1=O,4
8,CC(C)(N)CC(=O)N[C@@H]1CCc2ccccc2N(Cc2ccc(-c3ccccc3)cc2)C1=O,1700
9,C[C@H](N)C(=O)N[C@@H](Cc1ccccc1)C(=O)N[C@@H](Cc1cccc2ccccc12)C(=O)N[C@@H](Cc1ccccc1)C(=O)N[C@@H](CCCCN)C(N)=O (H-AF[1Nal]FK-NH2),2
10,NCCCC[C@H](NC(=O)[C@H](Cc1ccccc1)NC(=O)C(Cc1cccc2ccccc12)NC(=O)c1cccc(CN)c1)C(N)=O (some centres not stated) (H-[3Amb][ξ1Nal]FK-NH2),7
11,Cc1nnc(-c2cscc2-c2ccc(CN3C(=O)[C@H](NC(=O)CC(C)(C)N)CCc4c3ccc3ccccc43)cc2)o1,37

# System: not listed separately
# Experiment: Oral bioavailability determined in rats
# Assay type: ADME, organism-based
# Conditions: rat, in vivo
row,Structure (SMILES),bioavailability [%]
1,CC(C)(N)CC(=O)N[C@@H]1CCc2c(ccc3ccccc23)N(Cc2ccc(-c3ccccc3-c3nn[nH]n3)cc2)C1=O,< 5
